Measured values: patent US6110943A, “N-substituted (thiophen-2-yl)-piperidines and tetrahydropyridines as serotonergic agents” (American Home Products Corporation, priority 1999, dated 2000)
pIC50: −log10 of the molar value.

How the values were obtained:
[1] = target: T1, 5-HT1A serotonin receptor (Rattus norvegicus, UniProt P19327); experiment: displacement of [^3 H] 8-OHDPAT (dipropylaminotetralin) from the 5-HT1A serotonin receptor (Hall et al., J. Neurochem. 44, 1685 (1985)); settings: read-out: 5-HT1A Binding (IC50)
T1 construct: following the procedure of Hall et al., J. Neurochem; 44, 1685 (1985); from tissue
T1 sequence (P19327 1-422): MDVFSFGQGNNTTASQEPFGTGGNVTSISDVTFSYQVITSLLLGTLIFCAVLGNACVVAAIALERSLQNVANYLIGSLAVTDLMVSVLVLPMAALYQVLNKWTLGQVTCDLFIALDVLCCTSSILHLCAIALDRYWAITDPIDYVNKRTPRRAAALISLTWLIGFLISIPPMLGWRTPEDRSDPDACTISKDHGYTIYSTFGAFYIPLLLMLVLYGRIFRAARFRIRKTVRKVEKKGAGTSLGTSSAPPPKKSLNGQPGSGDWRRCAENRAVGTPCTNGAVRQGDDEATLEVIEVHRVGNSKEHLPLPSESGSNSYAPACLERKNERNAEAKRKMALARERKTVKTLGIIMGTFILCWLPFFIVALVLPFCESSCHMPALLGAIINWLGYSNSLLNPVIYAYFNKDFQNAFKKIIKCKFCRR
Method: Representative compounds of the present invention were evaluated and determined to have high affinity for the serotonin 5-HT1A receptor by testing the compound's ability to displace [^3 H] 8-OHDPAT (dipropylaminotetralin) from the 5-HT1A serotonin receptor following the procedure of Hall et al., J. Neurochem. 44, 1685 (1985). […] The anxiolytic activity of buspirone is believed to be, at least partially, due to its 5-HT1A receptor affinity (Vander Maclen et al., Eur. J. Pharmacol. 1986,129 (1-2)[…]).

[2] = system: 5-HT1A serotonin receptor subtype; settings: buspirone as standard for anxiolytic activity; cited from earlier work

SMILES	pIC50 [1]	5-HT1A receptor affinity (in words) [2]
COc1ccsc1C1=CCN(C[C@H](Cc2ccccc2)NC(=O)C2CCCCC2)CC1 [Example 3, (S)-cyclohexanecarboxylic acid {1-benzyl-2-[4-(3-methoxy-thiophen-2-yl)-3,6-dihydro-2H-pyridin-1-yl]-ethyl}-amide]	9.11	
COc1ccsc1C1=CCN(C[C@H](Cc2ccccc2)NC(=O)OC(C)(C)C)CC1 [Example 2, (S)-{1-Benzyl-2-[4-(3-methoxy-thiophen-2-yl)-3,6-dihydro-2H-pyridin-1-yl]-ethyl}-carbamic acid tert-butyl ester]	8.80	
O=C1CC2(CCCC2)CC(=O)N1CCCCN1CCN(c2ncccn2)CC1 [buspirone]		potent affinity
COc1ccsc1C1(O)CCN(C[C@H](Cc2ccccc2)NC(=O)OC(C)(C)C)CC1 [Example 1, (S)-{1-Benzyl-2-[4-hydroxy-4-(3-methoxy-thiophen-2-yl)-piperidin-1-yl]-ethyl}-carbamic acid tert-butyl ester]	7.10	
COc1ccsc1C1CCN(C[C@H](Cc2ccccc2)NC(=O)C2CCCCC2)CC1 [Example 4, Cyclohexanecarboxylic acid {(1S)-1-benzyl-2-[4-(3-methoxy-thiophen-2-yl)-piperidin-1-yl]-ethyl}-amide]	8.96	
